Assay results as given in US20030022821A1, “Bioactive peptides” (priority 1998, published 2003).
pEC50: −log10 of the molar value. In brackets after ≈: the same amount, converted by molar mass. Where two headings read alike, the source gives them in different places. Peptide text beside a SMILES is read from it. * marks the point of attachment. Acm = CC(=O)NC*

Key:
Assay type in all cases: cell-based
[1] = tested on: Escherichia coli ATCC 25922
In short: (§1)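 Inoculum of 2×10^6 CFU/ml, mid-logarithmic growth phase, in 1% Bacto Peptone water; standard microdilution, performed in triplicate.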

[2] = tested on: Staphylococcus aureus ATCC 25923
In short: as §1

[3] = tested on: human red blood cells; test: Hemolytic assay; conditions: for % Hemolysis 10 μg/ml / % Hemolysis 100 μg/ml: red cells of human
Method: The hemolytic activities of the peptides were determined using fresh human red blood cells. 8 ml blood was taken from a healthy person. 4 ml blood was transferred to a polycarbonate tube containing heparin to a final concentration of 10 U/ml, and the remaining 4 ml blood was transferred to a glass tube containing EDTA with final concentration of 15% EDTA. The erythrocytes were isolated from heparin-treated blood by centrifugation in 1500 rpm for 10 min and washed three times with phosphate-buffered saline (PBS) to remove plasma and buffy coat. The cell pellet was resuspended in PBS to make the final volume of 4 ml. The peptide was diluted to a concentration of 2 mg/ml and 0.1 mg/ml. The peptide was further diluted to the concentrations as stated in Table 15. For each tube PBS was added first, then RBCs and peptide solutions. The hematocrit in the blood treated with EDTA was determined after 30 min with Sysmex K-1000, and the resuspended RBCs were diluted into 10% hematocrit. RBCs in PBS (1%) with and without peptides (Table 15) were incubated in a shaker at […] for 1 hour and then centrifuged at 4000 rpm for 5 min. The supernatant were carefully transferred to new polycarbonate tubes and the absorbance of the supernatant was measured at 540 nm. Baseline hemolysis was hemoglobin released in the presence of PBS, and 100% hemolysis was hemoglobin released in the presence of 0.1% Triton X-100.

| Molecule | % Hemolysis 10 μg/ml [3] [%] | % Hemolysis 100 μg/ml [3] [%] | MIC E. coli ([1]; ATCC 25922) [µg/mL] | MIC S. aureus ([2]; ATCC 25923) [µg/mL] | further results |
| --- | --- | --- | --- | --- | --- |
| H-FKWRRWQWRMKKLWA-OH [LFB W3, 14, H2N-Phe-Lys-Trp-Arg-Arg-Trp-Gln-Trp-Arg-Met-Lys-Lys-Leu-Trp-Ala-COOH] | 3.1 | 5.1 |  |  | MIC E. coli ([1]; Table 6): 10 µg/mL; MIC E. coli ([1]; Table 12): 10 µg/mL; MIC S. aureus ([2]; Table 6, unit assumed): 10 µg/mL; MIC S. aureus ([2]; Table 12): 10 µg/mL; EC 50 [3]: >1000 µg/mL; pEC50 [3]: < 3.34 |
| CSCC[C@H](NC(=O)[C@H](CCCCN)NC(=O)[C@H](CCCCN)NC(=O)[C@H](CC(C)C)NC(=O)CNC(=O)[C@H](C)N)C(=O)N[C@@H](CCCNC(=N)N)C(=O)N[C@@H](Cc1c[nH]c2ccccc12)C(=O)N[C@@H](CCC(N)=O)C(=O)N[C@@H](Cc1c[nH]c2ccccc12)C(=O)N[C@@H](CCCNC(=N)N)C(=O)N[C@@H](CCCNC(=N)N)C(=O)N[C@@H](CSCNC(C)=O)C(=O)N[C@@H](CCCCN)C(=O)N[C@@H](Cc1ccccc1)C(=O)O [Retro LFB 17-31] | 2.01 |  |  |  | MIC E. coli ([1]; Table 3): 80 µg/mL (≈ 38.7 µM); MIC S. aureus ([2]; Table 3, unit assumed): 200 µg/mL (≈ 96.8 µM) |
| CSCC[C@H](NC(=O)[C@H](CCCNC(=N)N)NC(=O)[C@H](Cc1c[nH]c2ccccc12)NC(=O)[C@H](CCC(N)=O)NC(=O)[C@H](Cc1c[nH]c2ccccc12)NC(=O)[C@H](CCCNC(=N)N)NC(=O)[C@H](CC(C)C)NC(=O)[C@H](CSCNC(C)=O)NC(=O)[C@H](CCCCN)NC(=O)[C@@H](N)CCCNC(=N)N)C(=O)N[C@@H](CCCNC(=N)N)C(=O)N[C@@H](CCCCN)C(=O)N[C@H](C(=O)NCC(=O)NCC(=O)O)C(C)C [LFM R1, 9 W8] (H-RKC(Acm)LRWQWRMRKVGG-OH; N-terminus assumed) | 3.69 |  | 25 (≈ 12.3 µM) | 75 (≈ 36.9 µM) |  |
| CSCC[C@H](NC(=O)[C@H](C)NC(=O)[C@H](Cc1c[nH]c2ccccc12)NC(=O)[C@H](CCC(N)=O)NC(=O)[C@H](Cc1c[nH]c2ccccc12)NC(=O)[C@H](CCCNC(=N)N)NC(=O)[C@H](CC(C)C)NC(=O)[C@H](CSCNC(C)=O)NC(=O)[C@H](CCCCN)NC(=O)[C@H](C)N)C(=O)N[C@@H](CCCNC(=N)N)C(=O)N[C@@H](CCCCN)C(=O)N[C@H](C(=O)NCC(=O)NCC(=O)O)C(C)C [LFM A1, 9 W8] (H-AKC(Acm)LRWQWAMRKVGG-OH; N-terminus assumed) | 2.8 | 3.7 | 200 (≈ 107 µM) | >1000 |  |
| CSCC[C@H](NC(=O)[C@H](CCCNC(=N)N)NC(=O)[C@H](Cc1c[nH]c2ccccc12)NC(=O)[C@H](CCC(N)=O)NC(=O)[C@H](Cc1c[nH]c2ccccc12)NC(=O)[C@H](CCCNC(=N)N)NC(=O)[C@H](CCCNC(=N)N)NC(=O)[C@H](Cc1c[nH]c2ccccc12)NC(=O)[C@H](CCCCN)NC(=O)[C@@H](N)Cc1ccccc1)C(=O)N[C@@H](CCCCN)C(=O)N[C@@H](CCCCN)C(=O)N[C@@H](CC(C)C)C(=O)NCC(=O)N[C@@H](C)C(=O)O [LFB W3, H2N-Phe-Lys-Trp-Arg-Arg-Trp-Gln-Trp-Arg-Met-Lys-Lys-Leu-Gly-Ala-COOH] | 2.3 | 3.8 | 20 (≈ 9.63 µM) | 20 (≈ 9.63 µM) | MIC E. coli ([1]; Table 6): 20 µg/mL (≈ 9.63 µM); MIC S. aureus ([2]; Table 6, unit assumed): 20 µg/mL (≈ 9.63 µM) |
| CSCC[C@H](NC(=O)[C@H](CCCNC(=N)N)NC(=O)[C@H](Cc1c[nH]c2ccccc12)NC(=O)[C@H](CCC(N)=O)NC(=O)[C@H](Cc1c[nH]c2ccccc12)NC(=O)[C@H](CCCNC(=N)N)NC(=O)[C@H](Cc1ccccc1)NC(=O)[C@H](CSCNC(C)=O)NC(=O)[C@H](CCCCN)NC(=O)[C@@H](N)Cc1ccccc1)C(=O)N[C@@H](CCCCN)C(=O)N[C@@H](CCCCN)C(=O)N[C@@H](CC(C)C)C(=O)NCC(=O)N[C@@H](C)C(=O)O [LFB F4] (H-FKC(Acm)FRWQWRMKKLGA-OH; N-terminus and C-terminus assumed) | 2.4 | 3.2 |  |  | MIC E. coli ATCC 25922 ([1]; ATCC 25922): 20 µg/mL; MIC E. coli ATCC 25922 ([1]; Table 1, value in brackets): 10 µM; MIC E. coli ([1]; Table 12): 20 µg/mL (≈ 9.73 µM); MIC S. aureus ATCC 25923 ([2]; ATCC 25923): 200 µg/mL; MIC S. aureus ATCC 25923 ([2]; Table 1, value in brackets): 100 µM; MIC S. aureus ([2]; Table 12): 200 µg/mL (≈ 97.3 µM) |
| CSCC[C@H](NC(=O)[C@H](CCC(=O)O)NC(=O)[C@H](CC(N)=O)NC(=O)[C@H](CCC(N)=O)NC(=O)[C@H](Cc1c[nH]c2ccccc12)NC(=O)[C@H](CCCNC(=N)N)NC(=O)[C@H](CC(C)C)NC(=O)[C@H](CSCNC(C)=O)NC(=O)[C@H](CCCCN)NC(=O)[C@@H](N)CCC(=O)O)C(=O)N[C@@H](CCCNC(=N)N)C(=O)N[C@@H](CCCCN)C(=O)N[C@H](C(=O)NCC(=O)NCC(=O)O)C(C)C [LFM, EKCLRWQNEMRKVGG] (H-EKC(Acm)LRWQNEMRKVGG-OH; N-terminus assumed) | 2.3 | 3.1 | >1000 | >1000 |  |
| CSCC[C@H](NC(=O)[C@H](CCC(=O)O)NC(=O)[C@H](Cc1c[nH]c2ccccc12)NC(=O)[C@H](CCC(N)=O)NC(=O)[C@H](Cc1c[nH]c2ccccc12)NC(=O)[C@H](CCCNC(=N)N)NC(=O)[C@H](CC(C)C)NC(=O)[C@H](CSCNC(C)=O)NC(=O)[C@H](CCCCN)NC(=O)[C@@H](N)CCCNC(=N)N)C(=O)N[C@@H](CCCNC(=N)N)C(=O)N[C@@H](CCCCN)C(=O)N[C@H](C(=O)NCC(=O)NCC(=O)O)C(C)C [LFM R1, W8] (H-RKC(Acm)LRWQWEMRKVGG-OH; N-terminus assumed) | 2.8 | 3.48 | 75 (≈ 37.4 µM) | 500 (≈ 249 µM) |  |
| CSCC[C@@H](NC(=O)[C@@H](CCCNC(=N)N)NC(=O)[C@@H](Cc1c[nH]c2ccccc12)NC(=O)[C@@H](CCC(N)=O)NC(=O)[C@@H](Cc1c[nH]c2ccccc12)NC(=O)[C@@H](CCCNC(=N)N)NC(=O)[C@@H](CCCNC(=N)N)NC(=O)[C@@H](CSCNC(C)=O)NC(=O)[C@@H](CCCCN)NC(=O)[C@H](N)Cc1ccccc1)C(=O)N[C@H](CCCCN)C(=O)N[C@H](CCCCN)C(=O)N[C@H](CC(C)C)C(=O)NCC(=O)N[C@H](C)C(=O)O [Enantio LFB 17-31] | 3.05 |  |  |  | MIC E. coli ([1]; Table 3): 7.5 µg/mL (≈ 3.63 µM); MIC S. aureus ([2]; Table 3, unit assumed): 60 µg/mL (≈ 29 µM) |
| CSCC[C@H](NC(=O)[C@H](CCCNC(=N)N)NC(=O)[C@H](Cc1c[nH]c2ccccc12)NC(=O)[C@H](CCC(N)=O)NC(=O)[C@H](Cc1c[nH]c2ccccc12)NC(=O)[C@H](CCCNC(=N)N)NC(=O)[C@H](CCCNC(=N)N)NC(=O)[C@H](CSCNC(C)=O)NC(=O)[C@H](CCCCN)NC(=O)[C@@H](N)Cc1ccccc1)C(=O)N[C@@H](CCCCN)C(=O)N[C@@H](CCCCN)C(=O)N[C@@H](CC(C)C)C(=O)N[C@@H](Cc1c[nH]c2ccccc12)C(=O)N[C@@H](C)C(=O)O [LFB W14, H2N-Phe-Lys-Cys-Arg-Arg-Trp-Gln-Trp-Arg-Met-Lys-Lys-Leu-Trp-Ala-COOH] (H-FKC(Acm)RRWQWRMKKLWA-OH) | 3 | 4.1 | 20 (≈ 9.11 µM) | 25 (≈ 11.4 µM) | MIC E. coli ([1]; Table 6): 20 µg/mL (≈ 9.11 µM); MIC S. aureus ([2]; Table 6, unit assumed): 25 µg/mL (≈ 11.4 µM) |
| CSCC[C@H](NC(=O)[C@H](CCC(=O)O)NC(=O)[C@H](Cc1c[nH]c2ccccc12)NC(=O)[C@H](CCC(N)=O)NC(=O)[C@H](Cc1c[nH]c2ccccc12)NC(=O)[C@H](CCCNC(=N)N)NC(=O)[C@H](CC(C)C)NC(=O)[C@H](CSCNC(C)=O)NC(=O)[C@H](CCCCN)NC(=O)[C@H](C)N)C(=O)N[C@@H](CCCNC(=N)N)C(=O)N[C@@H](CCCCN)C(=O)N[C@H](C(=O)NCC(=O)NCC(=O)O)C(C)C [LFM A1 W8] (H-AKC(Acm)LRWQWEMRKVGG-OH; N-terminus assumed) | 2.4 | 3 | 750 (≈ 391 µM) | >1000 |  |
